From patent US20240343733A1, “COMPOUNDS FOR TARGETING DEGRADATION OF IRAK4 PROTEINS” (BIOGEN MA INC., priority 2021, published 2024)

Assays:
IRAK4 = target: T1, IRAK4 (Homo sapiens, UniProt Q9NWZ3); assay: IRAK4 Degradation Assay, HiBiT Method; format: cell-based; conditions: 293T cells expressing HiBiT-tagged IRAK4, 6 hours
T1 construct: 293Tcells expressing HiBiT-tagged IRAK4 were then added into 384-well plates
T1 sequence (Q9NWZ3 1-460): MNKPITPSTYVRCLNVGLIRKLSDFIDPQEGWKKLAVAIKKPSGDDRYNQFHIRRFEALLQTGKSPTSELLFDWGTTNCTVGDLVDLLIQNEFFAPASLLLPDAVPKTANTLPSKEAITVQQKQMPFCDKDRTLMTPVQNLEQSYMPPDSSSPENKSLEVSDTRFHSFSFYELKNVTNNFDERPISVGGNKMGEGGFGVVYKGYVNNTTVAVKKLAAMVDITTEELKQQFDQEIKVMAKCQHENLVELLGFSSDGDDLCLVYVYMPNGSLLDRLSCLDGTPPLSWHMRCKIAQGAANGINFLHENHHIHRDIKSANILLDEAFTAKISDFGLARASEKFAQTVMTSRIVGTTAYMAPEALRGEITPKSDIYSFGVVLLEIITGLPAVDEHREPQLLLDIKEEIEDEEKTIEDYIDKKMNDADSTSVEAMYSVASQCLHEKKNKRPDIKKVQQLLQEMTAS
Method in brief: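 293T cells with HiBiT knocked in at the C-terminus of endogenous IRAK4, 10,000 per well, treated 6 h at 37 °C with an 11-point half-log series ([…]), in duplicate. Remaining IRAK4 read by Nano-Glo HiBiT lytic luminescence against DMSO-only and media-only controls.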

IKZF1 = target: T2, IKZF1 (Homo sapiens, UniProt Q13422); assay: IKZF1 Degradation Assay, HiBiT Method; format: cell-based; conditions: NCIH929 cells expressing HiBiT-tagged IKZF1, 6 hours, top concentration 10 μM
T2 construct: endogenously expressing IKZF1 with HiBiT fusion tag via CRISPR
T2 sequence (Q96SW2 whole entry partner, the tested form may be a part): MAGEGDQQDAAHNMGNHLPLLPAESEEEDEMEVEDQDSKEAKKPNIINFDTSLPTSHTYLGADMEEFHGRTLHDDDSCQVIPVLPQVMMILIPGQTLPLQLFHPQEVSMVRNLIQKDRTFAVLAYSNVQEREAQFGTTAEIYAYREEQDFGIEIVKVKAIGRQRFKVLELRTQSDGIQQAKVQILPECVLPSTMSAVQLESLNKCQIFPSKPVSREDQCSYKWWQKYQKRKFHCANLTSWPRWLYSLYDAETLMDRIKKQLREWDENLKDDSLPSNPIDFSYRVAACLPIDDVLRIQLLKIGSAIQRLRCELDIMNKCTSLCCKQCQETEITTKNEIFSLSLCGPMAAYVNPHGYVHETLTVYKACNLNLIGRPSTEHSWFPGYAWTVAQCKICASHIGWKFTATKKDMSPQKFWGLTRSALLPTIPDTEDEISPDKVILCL
T2 sequence (Q16531 whole entry partner, the tested form may be a part): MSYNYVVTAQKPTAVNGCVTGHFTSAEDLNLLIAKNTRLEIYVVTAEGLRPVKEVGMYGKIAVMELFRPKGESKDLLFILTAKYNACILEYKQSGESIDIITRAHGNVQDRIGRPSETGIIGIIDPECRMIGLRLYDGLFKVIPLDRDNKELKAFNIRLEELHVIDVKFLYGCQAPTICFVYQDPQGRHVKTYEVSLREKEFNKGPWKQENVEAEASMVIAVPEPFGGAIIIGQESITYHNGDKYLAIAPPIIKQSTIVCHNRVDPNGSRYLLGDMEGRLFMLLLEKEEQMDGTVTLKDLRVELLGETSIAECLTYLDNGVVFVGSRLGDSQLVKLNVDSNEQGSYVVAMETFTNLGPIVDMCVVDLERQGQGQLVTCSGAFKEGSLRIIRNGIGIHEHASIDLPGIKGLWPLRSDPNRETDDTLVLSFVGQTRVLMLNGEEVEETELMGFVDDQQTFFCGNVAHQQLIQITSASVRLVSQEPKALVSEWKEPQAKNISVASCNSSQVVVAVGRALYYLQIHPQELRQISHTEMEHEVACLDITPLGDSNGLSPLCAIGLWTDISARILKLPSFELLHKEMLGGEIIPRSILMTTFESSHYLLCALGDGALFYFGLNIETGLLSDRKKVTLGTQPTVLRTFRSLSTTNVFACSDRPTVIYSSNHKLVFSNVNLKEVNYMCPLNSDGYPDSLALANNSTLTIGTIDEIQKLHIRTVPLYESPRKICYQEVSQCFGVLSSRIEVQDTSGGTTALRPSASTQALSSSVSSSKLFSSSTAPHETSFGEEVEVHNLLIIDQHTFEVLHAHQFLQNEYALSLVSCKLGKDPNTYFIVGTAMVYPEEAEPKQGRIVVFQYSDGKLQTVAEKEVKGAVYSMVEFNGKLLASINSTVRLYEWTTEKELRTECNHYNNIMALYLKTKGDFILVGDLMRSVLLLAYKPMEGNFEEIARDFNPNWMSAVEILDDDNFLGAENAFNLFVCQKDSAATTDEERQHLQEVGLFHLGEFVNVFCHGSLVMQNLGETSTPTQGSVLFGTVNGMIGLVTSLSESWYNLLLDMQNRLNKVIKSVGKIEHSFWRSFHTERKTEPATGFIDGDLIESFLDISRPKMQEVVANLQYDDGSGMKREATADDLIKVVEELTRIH
T2 sequence (Q13422 whole entry, the tested form may be a part): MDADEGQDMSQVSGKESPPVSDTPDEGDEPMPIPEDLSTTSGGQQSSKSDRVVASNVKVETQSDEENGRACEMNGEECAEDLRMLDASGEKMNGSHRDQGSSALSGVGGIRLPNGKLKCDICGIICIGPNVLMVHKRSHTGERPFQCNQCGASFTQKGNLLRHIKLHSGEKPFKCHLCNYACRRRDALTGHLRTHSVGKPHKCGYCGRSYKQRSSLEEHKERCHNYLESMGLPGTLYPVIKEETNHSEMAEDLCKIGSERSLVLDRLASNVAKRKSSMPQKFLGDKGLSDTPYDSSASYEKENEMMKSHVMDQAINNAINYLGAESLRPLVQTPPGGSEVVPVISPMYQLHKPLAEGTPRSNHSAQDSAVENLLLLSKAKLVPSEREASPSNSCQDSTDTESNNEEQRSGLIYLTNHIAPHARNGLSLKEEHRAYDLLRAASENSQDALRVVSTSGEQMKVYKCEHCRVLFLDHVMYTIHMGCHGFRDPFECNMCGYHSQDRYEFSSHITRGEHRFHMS
Method in brief: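 NCIH929 cells expressing HiBiT-tagged IKZF1, 15000 cells/well in RPMI with 10% FBS and 0.05 mM 2-mercaptoethanol, exposed to compound 6 h at 37 °C. Remaining IKZF1 quantified by lytic HiBiT luminescence, normalised to untreated-cell and medium-only controls.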

| SMILES | DC50 (IRAK4) | DC50 (IKZF1) |
| --- | --- | --- |
| CC(C)Oc1cc2nn(C3CCN(C(=O)CC4(O)CCN(c5cnc6c(c5)n(C)c(=O)n6C5CCC(=O)NC5=O)CC4)CC3)cc2cc1C(=O)Nc1cccn([C@H]2C[C@H]2F)c1=O (stereo partly drawn) [Example 153, 2-(1-(2-(1-(3-(2,6-dioxopiperidin-3-yl)-1-methyl-2-oxo-2,3-dihydro-1H-imidazo[4,5-b]pyridin-6-yl)-4-hydroxypiperidin-4-yl)acetyl)piperidin-4-yl)-N-(1-((1S,2R)-2-fluorocyclopropyl)-2-oxo-1,2-dihydropyridin-3-yl)-6-isopropoxy-2H-indazole-5-carboxamide] | 10 to 100 nM | > 10000 nM |
| CC(C)Oc1cc2nc(C3CCN(C(=O)CC4CCN(c5ccc(C6CCC(=O)NC6=O)cn5)CC4)CC3)cn2cc1C(=O)Nc1cnn2cccnc12 (stereo not drawn) [Example 159, 2-(1-(2-(1-(5-(2,6-dioxopiperidin-3-yl)pyridin-2-yl)piperidin-4-yl)acetyl)piperidin-4-yl)-7-isopropoxy-N-(pyrazolo[1,5-a]pyrimidin-3-yl)imidazo[1,2-a]pyridine-6-carboxamide] | < 10 nM | > 10000 nM |
| CC(C)Oc1cc2nc(C3CCN(C(=O)CC4CCN(c5ncc(C6CCC(=O)NC6=O)cc5F)CC4)CC3)cn2cc1C(=O)Nc1cnn2cccnc12 (stereo not drawn) [Example 162, 2-(1-(2-(1-(5-(2,6-dioxopiperidin-3-yl)-3-fluoropyridin-2-yl)piperidin-4-yl)acetyl)piperidin-4-yl)-7-isopropoxy-N-(pyrazolo[1,5-a]pyrimidin-3-yl)imidazo[1,2-a]pyridine-6-carboxamide] | 10 to 100 nM | > 10000 nM |
